Reference: patent publication US5536740A, “Skin care compositions containing dimethyl imidazolidinone and retinol or retinyl ester” (priority 1995, dated 1996)
Entries after “also recorded” stand apart in the source; their conditions may differ. Like-named read-outs stand apart in the source and are kept apart here.

What was measured:
[1] = test system: TGase I in human keratinocytes; experiment: ELISA based transglutaminase I (TGase I) assay of keratinocyte differentiation; format: cell-based
Protocol: (§1) Human keratinocytes, isolated from neonatal foreskin by trypsin treatment were grown in Dulbecco Modification Eagle (DME) Hams F12 (1:1) medium/10% fetal calf serum in the presence of irradiated 3T3 mouse fibroblasts for establishing dividing keratinocyte colonies. Cells were grown under the above condition until their second passage and kept frozen for future use. […] On day 7, when the cells were 80-90% confluent, they were trypsinized and plated in the serum-free medium for the various experiments.
Transglutaminase Assay and Keratinocyte Differentiation
During the process of terminal differentiation in the epidermis, a 15 nm thick layer of protein, known as the cornified envelope (CE) is formed on the inner surface of the cell periphery. The CE is composed of numerous distinct proteins which have been cross-linked together by the formation of N^ε -(γ-glutamyl)lysine isodipeptide bonds catalyzed by the action of at least two different transglutaminases (TGases) expressed in the epidermis. TGase 1 is expressed in abundance in the differentiated layers of the epidermis, especially the granular layer, but is absent in the undifferentiated basal epidermis. Thus TGase I is a useful marker of epidermal keratinocyte differentiation with high TGase I levels indicating a more differentiated state. An ELISA based TGase I assay, using a TGase I antibody, was used to assess the state of differentiation of the cultured keratinocytes in the examples that follow.
Keratinocytes (cultured as described above) were plated in 96 well plates at a density of 3,000 cells per well in 200 μl media. After incubation for four days the media was changed to media containing test compounds (six replicates per test). The cells were cultured for a further 72 hours after which time the media was aspirated and the plates stored at -70° C. Plates were removed from the freezer, and the cells washed with PBS. 100 μl sterile water was added and the cells were freeze fractured by freezing at -70° C. then thawing. The cells were incubated for one hour at room temperature (R/T) with PBS/3% BSA (wash buffer, bovine serum albumin), then rinsed with a fresh aliquot of wash buffer. Cells were incubated with 50 μl of primary antibodies monoclonal anti-human transglutaminase (IgG) obtained from Amersham (mouse) diluted 1:300 in wash buffer for one hour, 37° C. then rinsed two times with wash buffer. Cells were then incubated with 50 μl of secondary antibody (Feb fragment, peroxidase conjugated anti-mouse IgG obtaining from Amersham) diluted 1:200 in wash buffer for one hour at 37° C., then rinsed two times with wash buffer. Cells were incubated with substrate solution (4 mg o-phenylene diamine and 3.3 μl 30% H2 O2 in 10 ml 0.1M citrate buffer pH 5.0) for five minutes, R/T, in darkness (under aluminum foil). The reaction was stopped by the addition of 50 μl 4N […]. The absorbance of samples was read at 492 nm in the plate reader. Out of the six replicates, four were treated with both antibodies, two were treated only with the secondary antibody (i.e., to determine background binding of enzyme conjugated Ab). TGase levels were determined by subtracting background from the readings from each treatment and determining mean ±s.d. for the replicates exposed to both Ab.
The level of TGase-1 was normalized to DNA content of the cells in the same well thus eliminating variation due to differences in cell number. DNA quantitation is a particularly useful indicator of cell number, including keratinocyte cell number, because each cell has to all intents and purposes an identical genome and therefore an identical quantity of DNA. The total DNA content of a well of cells therefore is directly proportional to the cell number in that well. Quantitation of DNA was used to normalize the TGase data to cell number.
Keratinocytes were plated in 96 well plates at a density of 3,000 cells per well in […] media.

Human keratinocytes = experiment: 3H-thymidine incorporation assay of keratinocyte proliferation; format: cell-based; conditions: for mean Thymidine incorp./μg protein ± s.d / mean Thymidine incorp/μg protein ± s.d / activity at 0.25 µM / activity at 0.025 µM / activity at 0.0025 µM: 24 hours
Protocol: as §1
^3 H-Thymidine Incorporation and Keratinocyte Proliferation
The incorporation of ^3 H-thymidine by cultured keratinocytes was used as an assay of keratinocyte proliferation. Thymidine is one of four deoxynucleosides which are the monomeric units of DNA, the universal library of genetic information in the animal kingdom. Prior to cell division of a somatic cell such as a keratinocyte, the complete genome of the cell undergoing cell division is replicated. This involves large scale DNA synthesis by the cell and enables both daughter cells to receive identical copies of the genetic material. When ^3 H-thymidine is included in the culture media of keratinocytes which are synthesizing DNA in preparation for cell division then the labelled nucleoside is incorporated into the newly synthesized DNA. The extent of incorporation of ^3 -thymidine into a population of cells is proportional to the rate of DNA synthesis by this population of cells and therefore an indication of their cellular proliferation.
Keratinocytes (that were cultured as described above) were plated in 24 well plates at a density of 40,000 cells per well in 1 ml media. After incubation for four days or until the cells were 60-70% confluent, the media was changed. Test compounds were added (in triplicate) to the wells 24 hours after the media change, and four hours later 1 μCi^3 H-Thymidine in 50 μl media was added per well. Cells were incubated for a further 24 hours. Media was removed from the cells, 10% ice cold trichloroacetic acid (TCA) added and plates were incubated on ice for 30 minutes. Cells were washed five times with 5% TCA and allowed to dissolve in 500 μl 0.1M NaOH for at least one hour (usually overnight). The preparations were neutralized with 0.1M HCl; 50 μl of the cell preparation was used to determine total protein content. Disintegrations per minute (DPM) from a H labelling of DNA was determined by liquid scintillation counting of 900 μl of the cell preparation. Thymidine incorporation results were expressed as DPM/μg protein.

[2] = 2.5 × 10^-7 M, normalized to DNA, 72 hours, n = 3
[3] = 2.5 × 10^-8 M, normalized to DNA, 72 hours, n = 3
[4] = 2.5 × 10^-9 M (ROH line printed 2.5 × 10^-0 M), normalized to DNA, 72 hours, n = 3
[5] = Example 4, 2.5 × 10^-8 M, n = 3
[6] = Homo sapiens, Keratinocyte, 72 h, 2.5 × 10^-7 M, normalized to DNA, 72 hours, n = 3, read-out: mean TGase/DNA (% control)
[7] = Homo sapiens, Keratinocyte, 72 h, 2.5 × 10^-8 M, normalized to DNA, 72 hours, n = 3, read-out: mean TGase/DNA (% control)
[8] = Homo sapiens, Keratinocyte, 72 h, 2.5 × 10^-9 M (ROH line printed 2.5 × 10^-0 M), normalized to DNA, 72 hours, n = 3, read-out: mean TGase/DNA (% control)
[9] = Homo sapiens, Keratinocyte, 72 h, Example 4, 2.5 × 10^-8 M, n = 3, read-out: mean TGase (% control)
[10] = 2.5 × 10^-8 M, n = 3 (Examples 1-3)
[11] = Homo sapiens, Keratinocyte, 2.5 × 10^-7 M, n = 3, read-out: mean Thymidine incorp./μg protein (% control)
[12] = Homo sapiens, Keratinocyte, 2.5 × 10^-8 M, n = 3 (Examples 1-3), read-out: mean Thymidine incorp./μg protein (% control)
[13] = Homo sapiens, Keratinocyte, 2.5 × 10^-9 M, n = 3, read-out: mean Thymidine incorp./μg protein (% control)
[14] = Homo sapiens, Keratinocyte, Example 4, 2.5 × 10^-8 M, n = 3, read-out: mean Thymidine incorp/μg protein (% control)

Structure (SMILES) | mean TGase/DNA × 10^-4 ± s.d [1, 2] | mean TGase/DNA × 10^-4 ± s.d [1, 3] | mean TGase/DNA × 10^-4 ± s.d [1, 4] | mean TGase ± s.d [1, 5] | activity at 0.25 µM [1, 6] [%] | activity at 0.025 µM [1, 7] [%] | activity at 0.0025 µM [1, 8] [%] | activity at 0.025 µM [1, 9] [%] | mean Thymidine incorp./μg protein ± s.d (Human keratinocytes; 2.5 × 10^-7 M, n = 3) [DPM/μg protein] | mean Thymidine incorp./μg protein ± s.d (Human keratinocytes; [10]) [DPM/μg protein] | mean Thymidine incorp./μg protein ± s.d (Human keratinocytes; 2.5 × 10^-9 M, n = 3) [DPM/μg protein] | mean Thymidine incorp/μg protein ± s.d (Human keratinocytes; [5]) [DPM/μg protein] | activity at 0.25 µM (Human keratinocytes; [11]) [%] | activity at 0.025 µM (Human keratinocytes; [12]) [%] | activity at 0.0025 µM (Human keratinocytes; [13]) [%] | activity at 0.025 µM (Human keratinocytes; [14]) [%] | effect on keratinocyte TGase level / differentiation (in words) [1] | effect on keratinocyte proliferation (in words) (Human keratinocytes) | other results
CC1=C(/C=C/C(C)=C/C=C/C(C)=C/C(=O)O)C(C)(C)CCC1 [RA, retinoic acid, reference compound] | 0.16 ± 0.11 × 10^-4 | 1.34 ± 0.40 × 10^-4 | 1.87 ± 0.49 × 10^-4 | 0.155 ± 0.098 | 7 | 55 | 77 | 16 | 2475 ± 116 | 2686 ± 72 | 2556 ± 80 | 3691 ± 205 | 118 | 128 | 122 | 106 | – | – | mean TGase (% control) ([1]; Example 4, 2.5 × 10^-8 M, n = 3, 0.025 µM, 4320 min): 15%; effect on keratinocyte TGase level / differentiation (in words) ([1]; listed as Retinoic acid): decreased keratinocyte differentiation; effect on keratinocyte TGase level / differentiation (in words) ([1]; listed as retinoic acid): decreased keratinocyte TGase level over both the ethanol control and did so to a significantly greater extent than each of the corresponding 2.5×10^-7 M, 2.5×10^-8 M and 2.5×10^-9 M retinol treatments; activation at 0.025 µM (Human keratinocytes; Homo sapiens, Keratinocyte, read-out: increase in keratinocyte thymidine incorporation over the 2.5×10^-8 M retinol treatment, Example 2, 2.5×10^-8 M): 28%; activation at 0.025 µM (Human keratinocytes; Homo sapiens, Keratinocyte, read-out: increase in keratinocyte thymidine incorporation over the 2.5×10^-8 M retinyl palmitate treatment, Example 4, 2.5×10^-8 M): 6%; activation at 0.025 µM (Human keratinocytes; Homo sapiens, Keratinocyte, read-out: increase in keratinocyte thymidine incorporation over the ethanol control, Example 2, 2.5×10^-8 M): 28%; activation at 0.025 µM (Human keratinocytes; Homo sapiens, Keratinocyte, read-out: increase in keratinocyte thymidine incorporation over the ethanol control, Example 4, 2.5×10^-8 M): 6%; effect on keratinocyte proliferation (in words) (Human keratinocytes; listed as Retinoic acid): increased keratinocyte proliferation; effect on keratinocyte proliferation (in words) (Human keratinocytes; listed as retinoic acid): significantly increased keratinocyte proliferation over both the ethanol control and each of the 2.5×10^-7 M, 2.5×10^-8 M and 2.5×10^-9 M retinol treatments and they did so in a dose dependant manner
CCCCCCCCCCCCCCCC(=O)OC/C=C(C)/C=C/C=C(C)/C=C/C1=C(C)CCCC1(C)C [Retinyl Palmitate (RP), retinyl palmitate] | – | – | – | 0.790 ± 0.387 | – | – | – | 79 | – | – | – | 3386 ± 326 | – | – | – | 97 | significantly less effective than retinoic acid at inhibiting keratinocyte differentiation | completely ineffective at increasing keratinocyte proliferation | –
CC1=C(/C=C/C(C)=C/C=C/C(C)=C/CO)C(C)(C)CCC1 [ROH, Retinol] | 1.14 ± 0.22 × 10^-4 | 1.89 ± 0.30 × 10^-4 | 2.70 ± 0.59 × 10^-4 | – | 47 | 77 | > 100 | – | 2218 ± 73 | 2034 ± 46 | 1977 ± 19 | – | 106 | 97 | 94 | – | – | completely ineffective at increasing keratinocyte proliferation | effect on keratinocyte TGase level / differentiation (in words) ([1]; listed as Retinol): significantly less effective than retinoic acid at inhibiting keratinocyte differentiation; effect on keratinocyte TGase level / differentiation (in words) ([1]; listed as retinol): The decrease in transglutaminase level was dose dependant for both retinoic acid and retinol; mean Thymidine incorp./μg protein ± s.d (Human keratinocytes; 2.5 × 10^-7 M, n = 3, listed as Retinol): 2218 ± 79 DPM/μg protein
CN1CCN(C)C1=O [Dimethyl imidazolidinone, 1,3-dimethyl-2-imidazolidinone] | – | – | – | – | – | – | – | – | – | – | – | – | – | – | – | – | had no effect on keratinocyte TG1 levels | had no effect on keratinocyte proliferation on its own; also recorded: exerts little or no benefit | mean TGase ± s.d ([1]; Example 4, 10^-8 M, n = 3): 0.990 ± 0.251; activity at 0.01 µM ([1]; Homo sapiens, Keratinocyte, 72 h, read-out: mean TGase (% control)): 99%; mean Thymidine incorp/μg protein ± s.d (Human keratinocytes; 10^-6 M, n = 3): 1892 ± 119 DPM/μg protein; mean Thymidine incorp/μg protein ± s.d (Human keratinocytes; 10^-7 M, n = 3 (Example 3)): 2260 ± 166 DPM/μg protein; mean Thymidine incorp/μg protein ± s.d (Human keratinocytes; 10^-9 M, n = 3): 2003 ± 128 DPM/μg protein; mean Thymidine incorp/μg protein ± s.d (Human keratinocytes; Example 4, 10^-7 M, n = 3): 3214 ± 128 DPM/μg protein; activity at 1 µM (Human keratinocytes; Homo sapiens, Keratinocyte, 24 h, read-out: mean Thymidine incorp/μg protein (% control), 10^-6 M, 24 hours, n = 3): 90%; activity at 0.1 µM (Human keratinocytes; Homo sapiens, Keratinocyte, 24 h, read-out: mean Thymidine incorp/μg protein (% control), 10^-7 M, 24 hours, n = 3 (Example 3)): 108%; activity at 0.001 µM (Human keratinocytes; Homo sapiens, Keratinocyte, 24 h, read-out: mean Thymidine incorp/μg protein (% control), 10^-9 M, 24 hours, n = 3): 96%; activity at 0.1 µM (Human keratinocytes; Homo sapiens, Keratinocyte, 24 h, read-out: mean Thymidine incorp/μg protein (% control), Example 4, 10^-7 M, 24 hours, n = 3): 92%
